In brackets after ≈: the same amount, converted by molar mass. Like-named read-outs stand apart in the source and are kept apart here. Marks after values point to notes of the source that are not given here.
Columns and labels:
[1] = CNS MPO desirability score
Procedure: ACDLAbs PhysChem Suite 14.0 software (Advanced Chemistry Development, Inc., Toronto, ON, Canada) was used for the calculation of Mw, tPSA, and HBD values. The CNS MPO score calculation method was described by [Wager et al. (2016)].
Central nervous system multiparameter optimization desirability score was calculated as described by [Wager et al. (2016)], utilizing all collected experimental and calculated data. This scoring tool was set on ranges of desirable property space and linear transformational functions with values between 0 and 1 (defined as T0 for each property). Rating each parameter equally, the collective score ranges from 0 to 6, while a score higher than 4 is desirable ([Rankovic, 2015]).

[2] = Shake-flask partition coefficient logP and distribution coefficient logD (pH 7.4); format: physicochemical; conditions: for logD: n-octanol/sodium phosphate buffer pH 7.4; for logP: n-octanol/water
Procedure: Before the initiation of the intended experiments, all solvents were mutually saturated at 21°C. […] For saturation, large stock bottles containing n-octanol and 12% of water/buffer or water/buffer and 12% of n-octanol were shaken for 30 mins on a mechanical shaker and subsequently left to stand on the bench overnight until the phases separated. Approximately 0.50 mg of tested substance was added to the test vessels alongside with 1:1 volume ratio of saturated solvents (250 μL). The test vessels were shaken on the mechanical shaker (Multi Reax, Heidolph Instruments, Schwabach, Germany) for 30 min at the highest speed and then centrifuged for phase separation (16.873 × g for 5 min; Eppendorf 5418 Microcentrifuge, Prague, Czech Republic). Both organic and aqueous phases were sampled for LC-MS analysis. UHPLC-DAD-MS (UHPLC Infinity II 1290, detection by DAD and QqQ 6470; Agilent Technologies, CA, USA; separation on Arion C18 polar column 100 × 2.1 mm, 2.1 μm; Chromservis, Czech Republic) was used for determination of the exact concentration of tested substances. The total quantity of substance (in both phases) was used for logP/logD values calculation.

[3] = Solubility by nephelometry (water, buffer pH 7.4); format: physicochemical; conditions: for solubility at 30 s: medium not told apart (water and buffer pH 7.4)
Procedure: Compounds’ solubility was measured by the NEPHELOstar microplate instrument (BMG Labtech, Offenburg, Germany). Stock solutions were prepared by dissolving the tested compounds in ultrapure water or sodium phosphate buffer (pH 7.4) to obtain a concentration of 160 and 1,000 μg/mL. Each stock solution was sonicated at full power by Hielscher UP100H needle ultrasonic processor (Teltow, Germany) before loading into NEPHELOstar instrument injector A. Ultrapure water or sodium phosphate buffer was loaded into injector B. Compound was diluted in 48 wells in 0–160 or 0–1,000 μg/mL range and subsequently shook for 30 s. Each well was scanned with 80% laser power in matrix 3 × 3, beam width 2 mm, and obtained data were evaluated in GraphPad Prism 7.03 (GraphPad Software, San Diego, CA, USA) using segmental linear regression.

[4] = Dissociation constants by spectrophotometric titration; format: physicochemical; conditions: 20°C; for pKa: ultrapure water
Procedure: The spectrophotometric titration was used for dissociation constants’ determination, utilizing spectrophotometer Agilent Cary-60 (Agilent Technologies, CA, USA), pH meter WTW InoLab_IDS Multi 9430 (WTW, Czech Republic), and pH electrode SenTix® Mic (WTW, Czech Republic). Data were analyzed by GraphPadPrism 8.0 software (GraphPad Software, CA, USA). The analyzed samples were prepared by adding 20 μL of compound stock solution (2 mg/mL) and 20 μL of 0.1 M hydrochloric acid into the cuvette with ultrapure water (total volume 3.5 mL). The samples were titrated by 0.1 M sodium hydroxide at 20°C while acquiring absorption spectra (190–500 nm) at different pH values. Absorbance at the chosen wavelength was plotted as a function of pH. The inflection point in the given plot was used for pKa value determination.

[5] = system: BJ, RPE-1 and U373 cells; experiment: Crystal violet and resazurin proliferation screen in proliferating cells; format: cell-based, human; conditions: RPE-1, U373, 0, 10, 50, 80, 100 μM, 24 h
Procedure: All cell lines used in the study were obtained from the American Type Culture Collection (ATCC, Manassas, VA, USA). Human telomerase-immortalized retinal pigment epithelial cells RPE-1, glioblastoma U-87 MG, glioblastoma U373MG, glioblastoma T98G, glioblastoma A-172, breast adenocarcinoma MDA-MB-231, prostate carcinoma DU-145, and non-small cell lung cancer NCI-H1299 cell lines were cultured in Dulbecco’s modified Eagle’s medium (DMEM, Thermo Fisher Scientific, Waltham, MA, USA) with high glucose (4.5 g/L). Primary human skin BJ fibroblasts were cultured in Dulbecco’s modified Eagle’s medium (DMEM, Thermo Fisher Scientific, Waltham, MA, USA) with low glucose (1 g/L). Both cell culture media were supplemented with 10% fetal bovine serum (FBS, Gibco/Thermo Fisher Scientific) and non-essential amino acids (NEAA), 100 units/mL of penicillin, and 100 μg/mL of streptomycin (Sigma-Aldrich). Cells were kept at 37°C under a 5% CO2 atmosphere and 95% humidity.
(§1) Twenty-four hours before treatment, cells were plated in 96-well plates at densities of 2,850 cells per well for senescent RPE-1 (IR-RPE-1), 3,350 cells per well for proliferating RPE-1 and senescent BJ (DIS-BJ), and 5,000 cells per well for U373, T98, A172, U87, TMZ-U87, and proliferating BJ cells.
(§2) For the crystal violet assay, the cells were washed twice with 150 μL PBS and stained with 30 μL 0.5% (w/v) crystal violet in 20% methanol for 15 mins. Next, the plates were washed five times with ddH2O and left to dry overnight. Crystal violet was solubilized with 75 μL 0.2% Triton X-100 (Sigma) in PBS for 15 mins. The absorbance was read at 595 nm using a microplate reader (Envision, PerkinElmer, Waltham, MA, USA). The absorbance of crystal violet in treated cells was expressed as a percentage of absorbance in untreated cells. Each condition was measured at least in triplicate.
(§3) For the resazurin assay, 200 μL of the culture medium of each well was exchanged for 100 μL of resazurin (stock solution 30 mg/mL; Sigma, St. Louis, MO, USA) diluted 10 times in the culture medium, and the cells were incubated at 37°C for 1–3 h. Reading of fluorescence was done using a microplate reader (PerkinElmer, Waltham, MA, USA). Absolute values of fluorescence were related to the values of untreated cells. Each condition was measured at least in triplicate.

[6] = system: U373 cells; experiment: Time-lapse microscopy (Incucyte) of U373; format: cell-based, human; conditions: 100 μM, 72 h
Procedure: (§4) For auto-monitoring of cells, Incucyte SX1 Live-Cell Analysis System (Sartorius, Göttingen, Germany), located in an incubator maintained at 37°C under a 5% CO2 atmosphere and 95% humidity, was utilized. The images (1,408 × 1,040 pixels at 1.24 microns/pixel) were acquired using a 10× objective lens in phase contrast, red fluorescence (excitation: 585 ± 20 nm, emission: 635 [625, 705] nm, acquisition time: 100 ms) channels every 60 min during 72 h. The first image was acquired 30 min after adding compounds. The images were processed to measure cell confluence using Incucyte software (version 2022A). Annexin V – Dy647, Apronex (diluted 1:1,000) was used for apoptotic cell staining.

[7] = system: RPE-1 cells; experiment: Time-lapse microscopy (Incucyte) of proliferating RPE-1; format: cell-based, human; conditions: higher concentrations 80–100 μM, 72 h
Procedure: as §4

[8] = system: IR-induced senescent RPE-1 cells; experiment: Crystal violet and resazurin assays in IR-induced senescent RPE-1; format: cell-based, human; conditions: γ-irradiated RPE-1; crystal violet readout only
Procedure: To obtain ionizing radiation (IR)-induced senescent cells, proliferating RPE-1 cells were exposed to a single dose of X-rays (20 Gy) using Pantak HF160 (Gulmay, Surrey, UK) X-ray instrument equipped with Pantak Seifert HF320 generator, MXR-161 X-ray tube (Comet AG, Flamatt, Switzerland), and an aluminum filter using current 1–10 mA. After irradiation, the cells were cultured for an additional 7 days until the development of the senescent phenotype ([Salovska et al., 2022]). To induce docetaxel-induced senescence (DIS), BJ cells were exposed to 5 nM docetaxel for 7 days, as described previously ([Sapega et al., 2018]). To prepare temozolomide (TMZ)-induced senescence, U87 cells were exposed to 100 μM TMZ for 14 days.
as §1, §2
as §3, with “triplicate. […]” for “triplicate.”

[9] = from experimental and calculated data, method of Wager et al. (2016), scale 0-6
[10] = n-octanol/sodium phosphate buffer, pH 7.4, shake-flask, read-out: logD
[11] = aqueous buffer, sodium phosphate buffer pH 7.4, nephelometry, read-out: Sol. (buffer 7.4)
[12] = sodium phosphate buffer pH 7.4, nephelometry
[13] = ultrapure water, nephelometry, read-out: Sol. (H2O)

| SMILES | MPO (CNS MPO score) [1, 9] | logD [2, 10] | logP ([2]; shake-flask, read-out: logP) | solubility kinetic at 30 s [3, 11] [µg/mL] | logSpH 7.4 ([3]; buffer pH 7.4) | solubility kinetic at 30 s [3, 13] [µg/mL] | logSH2O ([3]; water) | pKa ([4]; read-out: pKa1) | melting point [°C] | effect on the readout of crystal violet and resazurin assays [5] | solubility at 30 s [3] [µg/mL] | further results |
| --- | --- | --- | --- | --- | --- | --- | --- | --- | --- | --- | --- | --- |
| CN(C)c1cccc(-c2cccc(C(N)=O)c2)c1 [Compound 6, 3’-(Dimethylamino)-[1,1’-biphenyl]-3-carboxamide] | 5 | 2.91 ± 0.01 | 2.86 ± 0.01 | < 6 | <−4.60 | < 6 | <−4.60 | 4.8 ± 0.06 | 104 to 106 | mild (although sometimes statistically significant) suppressive effect |  | Sol. (buffer 7.4) [3, 12]: lower than 6 μg/mL; Sol. (H2O) ([3]; ultrapure water, nephelometry): lower than 6 μg/mL |
| O=C(O[C@@H]1Cc2c(O)cc(O)cc2O[C@@H]1c1ccc(O)c(O)c1)c1cc(O)c(O)c(O)c1 [Compound 7, epicatechin gallate] |  | 1.52 ± 0.01 | 1.48 ± 0.03 | > 1000 | >−2.65 | 789 (≈ 1780 µM) | −2.75 |  |  | mild (although sometimes statistically significant) suppressive effect | > 1000 | effect on cell proliferation (cell confluence, time-lapse) [6]: cytostatic effect; effect on cell proliferation (cell confluence, time-lapse) [7]: cytostatic effect |
| NC(=O)[C@@H]1CC[C@H](C(=O)O)N1 [Compound 4] | 4.9 | -2.82 ± 0.22 | -2.89 ± 0.16 | > 1000 | >−2.20 | > 1000 | >−2.20 | 3.17 ± 0.09 |  | mild (although sometimes statistically significant) suppressive effect | > 1000 | pKa ([4]; read-out: pKa2): 7.8 ± 0.11 |
| COc1ccc(CN2CCNC2=N)cc1OC [Compound 5] |  | -1.78 ± 0.08 | -1.79 ± 0.04 |  |  |  |  |  |  | no effect |  | MPO (CNS MPO score) ([1]; experimental pKa unknown: calculated with T0(pKa) equal to zero): 4.5^a; logSH2O ([3]; 30 s): >−3.36; logSpH 7.4 ([3]; 30 s, pH 7.4): >−3.36; solubility kinetic at 30 s ([3]; pH 7.4, aqueous buffer): > 160 µg/mL; solubility kinetic at 30 s ([3]; water): > 160 µg/mL; selectivity for senescent versus proliferating cells [8]: mild but selective effect |
| CO[C@H]1C[C@@H]2CC[C@@H](C)[C@@](O)(O2)C(=O)C(=O)N2CCCC[C@H]2C(=O)O[C@H]([C@H](C)C[C@@H]2CC[C@@H](O)[C@H](OC)C2)CC(=O)[C@H](C)/C=C(\C)[C@@H](O)[C@@H](OC)C(=O)[C@H](C)C[C@H](C)/C=C/C=C/C=C/1C [Rapamycin, rapamycin] | 0.7 | 4.63 ± 0.04 | 3.97 ± 0.03 | < 6 | <−5.18 | < 6 | <−5.18 | 10.7 ± 0.21 |  |  |  | logSpH 7.4 ([3]; buffer pH 7.4, listed as rapamycin): < −4.60; Sol. (buffer 7.4) [3, 12]: lower than 6 μg/mL; Sol. (H2O) ([3]; ultrapure water, nephelometry): lower than 6 μg/mL; logSH2O ([3]; water, listed as rapamycin): < −4.60 |
| c1ccc2[nH]c(NC3CCNCC3)nc2c1 [Compound 1, N-(piperidine-4-yl)-1H-benzo[d]imidazol-2-amine] | 5.2 |  |  | > 160 |  | 33.3 (≈ 154 µM) | −3.81 | 6.18 ± 0.04 | 227 to 229 | mild (although sometimes statistically significant) suppressive effect |  | logD ([2]; shake-flask): 0.85 ± 0.03; logP ([2]; shake-flask): 1.86 ± 0.07 |
| Br.Br.c1ccc2[nH]c(NC3CCNCC3)nc2c1 [Compound 2, N-(piperidin-4-yl)-1H-benzo[d]imidazol-2-amine dihydrobromide] | 4.9 |  |  | 299 | −3.10 | > 1000 | >−2.58 |  | 275 to 277 | mild (although sometimes statistically significant) suppressive effect | > 1000 | logD ([2]; shake-flask): −0.89 ± 0.11; logP ([2]; shake-flask): −1.01 ± 0.01; pKa1 [4]: 6.08 ± 0.08 |

From PMC9767416, “Discovery of small molecule mechanistic target of rapamycin inhibitors as anti-aging and anti-cancer therapeutics” (Frontiers in Aging Neuroscience, 2022)
